How the values were obtained:
TDP1 [1] = target: T1, TDP1 (Homo sapiens, UniProt Q9NUW8); assay: Real-time detection of TDP1 activity with fluorescent oligonucleotide biosensor; assay type: biochemical; details: for IC50: real-time fluorescent oligonucleotide biosensor, 1.5 nM TDP1, 50 nM substrate, read-out: IC50, TDP1 inhibition
T1 construct: made in house; host or cells: Escherichia coli
Protocol: The compounds synthesized starting from (+)-3-carene 8 were tested for their TDP1 inhibitory properties by measuring their IC50 values using a real-time fluorescent oligonucleotide biosensor [38].
A fluorophore quencher-coupled oligonucleotide biosensor was used for TDP1 enzyme activity real-time fluorescence detection. […] Recombinant protein TDP1 was expressed in Escherichia coli (pET 16B plasmid containing TDP1 cDNA was provided by Dr. K.W. Caldecott, University of Sussex, United Kingdom) and isolated as described by Lebedeva et al.. The reaction mixture contained TDP1 reaction buffer (50 mM Tris-HCl, 50 mM NaCl, 7 mM β-mercaptoethanol), 50 nM oligonucleotide substrate, varied concentrations of the tested compounds, and 1.5 nM purified TDP1 in a final volume of 200 μL.
The TDP1 reaction mixture was incubated at rt in a POLARstar OPTIMA fluorimeter (BMG LABTECH, GmbH). Fluorescence intensity was measured every 1 min (Ex485/Em520 nm). The efficiency of TDP1 inhibition was evaluated by comparing the rate of increase in the fluorescence of the biosensor in the presence of the compound to that of DMSO (1.5%) control wells. IC50 values were determined using an 11-point concentration–response curve. The data were imported into MARS Data Analysis 2.0 program (BMG LABTECH) and the slope during the linear phase was calculated. The IC50 measurements were carried out in at least three independent experiments.

TDP1 [2] = test system: TDP1; set-up: method as in PMID 31619021, PMID 30396105, PMID 30142660, PMID 29562592, PMID 27658793; details: Figure 1; ref [10]-[13],[16]-[18],[20],[22]; read-out: IC50 of known TDP1 inhibitors; cited from earlier work

T1 sequence (Q9NUW8 whole entry): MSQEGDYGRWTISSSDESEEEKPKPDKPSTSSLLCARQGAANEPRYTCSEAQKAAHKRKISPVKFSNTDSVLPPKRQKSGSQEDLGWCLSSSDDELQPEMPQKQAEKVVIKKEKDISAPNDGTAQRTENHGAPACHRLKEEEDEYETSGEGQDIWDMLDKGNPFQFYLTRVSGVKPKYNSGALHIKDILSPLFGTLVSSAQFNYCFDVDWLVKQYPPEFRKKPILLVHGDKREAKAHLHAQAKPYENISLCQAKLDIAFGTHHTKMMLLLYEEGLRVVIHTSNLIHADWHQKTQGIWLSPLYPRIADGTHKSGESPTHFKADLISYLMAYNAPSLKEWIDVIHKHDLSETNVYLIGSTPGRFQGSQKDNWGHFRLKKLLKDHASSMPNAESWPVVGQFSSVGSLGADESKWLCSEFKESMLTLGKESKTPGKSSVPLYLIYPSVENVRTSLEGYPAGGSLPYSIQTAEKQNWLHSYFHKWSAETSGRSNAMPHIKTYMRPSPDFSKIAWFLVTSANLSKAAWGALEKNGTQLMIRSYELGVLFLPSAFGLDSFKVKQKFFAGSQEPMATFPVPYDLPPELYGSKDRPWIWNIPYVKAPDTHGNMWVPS

For `C/C=C/C1OC(C)(C)[C@@H]2CCC(C)=C[C@H]12` (stereo partly shown) [11c], the “activity against TDP1 (in words)” value (TDP1 [1]) was “do not exhibit activity” and the IC50 (TDP1 [1]) was > 20 µM.
Work on `CC1=C[C@@H]2[C@@H](c3cccs3)OC(C)(C)[C@@H]2CC1` [11d, (1S,3aR,7aS)-3,3,6-trimethyl-1-(thiophen-2-yl)-1,3,3a,4,5,7a-hexahydroisobenzofuran] yielded an IC50 (TDP1 [1]) of 4.85 ± 1.06 µM.
`CC1=C[C@@H]2[C@@H](c3sccc3C)OC(C)(C)[C@@H]2CC1` [11e, (1S,3aR,7aS)-3,3,6-trimethyl-1-(3-methylthiophen-2-yl)-1,3,3a,4,5,7a-hexahydroisobenzofuran] gave an IC50 (TDP1 [1]) of 3.6 ± 1.7 µM.
Work on `CC1=C[C@@H]2[C@@H](c3ccc(C)s3)OC(C)(C)[C@@H]2CC1` [11f, (1S,3aR,7aS)-3,3,6-trimethyl-1-(5-methylthiophen-2-yl)-1,3,3a,4,5,7a-hexahydroisobenzofuran] yielded an IC50 (TDP1 [1]) of 4.7 ± 2 µM.
With `CC1=C[C@@H]2[C@@H](c3ccsc3)OC(C)(C)[C@@H]2CC1` [11k, (1S(R),3aR,7aS)-3,3,6-trimethyl-1-(thiophen-3-yl)-1,3,3a,4,5,7a-hexahydroisobenzofuran] the IC50 (TDP1 [1]) was 1.6 ± 0.56 µM.
For `COc1cc(C2OC(C)(C)C3CC=C(C)C2C3)ccc1O` (stereo not shown) [12a], the “activity against TDP1 (in words)” value (TDP1 [1]) was “do not exhibit activity” and the IC50 (TDP1 [1]) was > 20 µM.
With `CC1=CC[C@@H]2C[C@H]1[C@H](c1cccs1)OC2(C)C` [12d, (1R,4R,5R)-2,2,6-trimethyl-4-(thiophen-2-yl)-3-oxabicyclo[3.3.1]non-6-ene] the IC50 (TDP1 [1]) was 3.35 ± 1.06 µM.
`CC1=CC[C@@H]2C[C@H]1[C@H](c1sccc1C)OC2(C)C` [12e, (1R,4R,5R)-2,2,6-trimethyl-4-(3-methylthiophen-2-yl)-3-oxabicyclo[3.3.1]non-6-ene] showed an IC50 (TDP1 [1]) of 2.25 ± 0.63 µM.
With `CC1=CC[C@@H]2C[C@H]1[C@H](c1cc(Br)cs1)OC2(C)C` [12g, (1R,4R,5R)-2,2,6-trimethyl-4-(4-bromothiophen-2-yl)-3-oxabicyclo[3.3.1]non-6-ene] the IC50 (TDP1 [1]) was 0.65 ± 0.22 µM.
`CC1=CC[C@@H]2C[C@H]1[C@H](c1ccc(Br)s1)OC2(C)C` [12h, (1R,4R,5R)-2,2,6-trimethyl-4-(5-bromothiophen-2-yl)-3-oxabicyclo[3.3.1]non-6-ene] gave an IC50 (TDP1 [1]) of 1.75 ± 0.78 µM.
In the case of `CC1=CC[C@@H]2C[C@H]1[C@H](c1ccc([N+](=O)[O-])o1)OC2(C)C` [12j, (1R,4R,5R)-2,2,6-trimethyl-4-(5-nitrofuran-2-yl)-3-oxabicyclo[3.3.1]non-6-ene], the “activity against TDP1 (in words)” value (TDP1 [1]) is reported as “did not exhibit high activity” and the IC50 (TDP1 [1]) is reported as 28 ± 10 µM.
In the case of `CC(=O)C[C@H]1CC2C(CCC3C[C@H](OC(C)=O)CC[C@@]32C)C2CC[C@H]([C@H](C)CCC(=O)NC34CC5CC(CC(C5)C3)C4)[C@]21C` (stereo partly shown) [compound 2], the IC50 (TDP1 [2]) is listed as 0.47 µM.
In the case of `C[C@@H]1CC[C@@H]2[C@@H](C1)O[C@@H](c1ccc(NC(=O)C34CC5CC(CC(C5)C3)C4)s1)C[C@]2(C)O` [compound 3], the IC50 (TDP1 [2]) is listed as 1.2 µM.

From PMC7436013, “Design, Synthesis, and Biological Investigation of Novel Classes of 3-Carene-Derived Potent Inhibitors of TDP1” (Molecules, 2020)
